Experimental data taken from patent US7642378B2, “Lipid lowering biphenylcarboxamides” (Janssen Pharmaceutica NV, priority 2001, dated 2010).

Tests used:
Secretion of ApoB = assay: Quantification of the secretion of ApoB; assay type: cell-based; settings: HepG2 cells, 24 hours of incubation with test compound
Protocol: HepG2 cells were cultured in 24-well plates in MEM Rega 3 containing 10% fetal calf serum. At 70% confluency, the medium was changed and the test compound or carrier (DMSO, 0.4% final concentration) was added. After 24 hours of incubation, the medium was transferred to Eppendorf tubes and cleared by centrifugation. A sheep antibody directed against either apoB was added to the supernatant and the mixture was kept at 8° C. for 24 hours. Then, rabbit anti-sheep antibody was added and the immune complex was allowed to precipitate for 24 hours at 8° C. The immunoprecipitate was pelleted by centrifugation for 25 minutes at 1320 g and washed twice with a buffer containing 40 mM Mops, 40 mM NaH2PO4, 100 mM NaF, 0.2 mM DTT, 5 mM EDTA, 5 mM EGTA, 1% Triton-X-100, 0.5% sodium deoxycholate (DOC), 0.1% SDS, 0.2 μM leupeptin and 0.2 μM PMSF. Radioactivity in the pellet was quantified by liquid scintillation counting.
Resulting IC50 values are enumerated in Table C. 1.

pIC50 values (=−log IC50 value) (Secretion of ApoB)	melting point [°C]	Compound
6.591	–	COC(=O)COC(=O)C(c1ccccc1)N1CCN(c2ccc(NC(=O)c3ccccc3-c3ccc(C(F)(F)F)cc3)cc2)CC1 (stereo not drawn) [compound 14]
–	119.9 to 120	COC(=O)CNC(=O)C(c1ccccc1)C1CCN(c2ccc(NC(=O)c3ccccc3-c3ccc(C(C)(C)C)cc3)cc2)CC1 (stereo not drawn) [Co. No. 145, (B)—N-[[1-[4-[[[4′-(1,1-dimethylethyl)[1,1′-biphenyl]-2-yl]carbonyl]amino]phenyl]-4-piperidinyl]phenylacetyl]-glycine methyl ester]
–	106	COC(=O)COC(=O)C(c1ccccc1)N1CCN(c2ccc(NC(=O)c3ccccc3-c3ccc(C(F)(F)F)cc3)cc2)CC1 (stereo not drawn) [Co. No. 14, 2-methoxy-2-oxoethyl α-phenyl-4-[4-[[[4′-(trifluoromethyl)[1,1′-biphenyl]-2-yl]carbonyl]amino]phenyl]-1-piperazineacetate]
